From PubChem BioAssay (NCI)
Several values for one entry are separate records, joined by “and”; a condition that tells them apart may be missing. Equal entries are not always repeated.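 In this assay, cells in 96-well plates receive the compound at five concentrations for 48 hours. Endpoints are linearly interpolated between the surrounding concentrations. Abbreviation: GI50, concentration required for 50% inhibition of growth. At the TGI there is no net growth.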

Experiments:
Test in all cases: NCI tumour cell line growth inhibition, 48 h
786-0 renal = system: 786-0 renal
HCT-15 colon = system: HCT-15 colon
SF-539 CNS = system: SF-539 CNS
SW-620 colon = system: SW-620 colon
SK-MEL-5 melanoma = system: SK-MEL-5 melanoma
RPMI-8226 leukemia = system: RPMI-8226 leukemia
IGROV1 ovarian = system: IGROV1 ovarian
SNB-19 CNS = system: SNB-19 CNS
ACHN renal = system: ACHN renal
UACC-257 melanoma = system: UACC-257 melanoma

| Compound | GI50 (786-0 renal) | TGI (786-0 renal) | GI50 (HCT-15 colon) | TGI (HCT-15 colon) | GI50 (SF-539 CNS) | TGI (SF-539 CNS) | GI50 (SW-620 colon) | TGI (SW-620 colon) | GI50 (SK-MEL-5 melanoma) | TGI (SK-MEL-5 melanoma) | GI50 (RPMI-8226 leukemia) | TGI (RPMI-8226 leukemia) | GI50 (IGROV1 ovarian) [µM] | TGI (IGROV1 ovarian) | GI50 (SNB-19 CNS) | TGI (SNB-19 CNS) | GI50 (ACHN renal) | TGI (ACHN renal) | GI50 (UACC-257 melanoma) | TGI (UACC-257 melanoma) |
| --- | --- | --- | --- | --- | --- | --- | --- | --- | --- | --- | --- | --- | --- | --- | --- | --- | --- | --- | --- | --- |
| Cc1cc(I)cc(CNCCN2CCOCC2)c1O | 36.9 µM | > 100 µM | > 100 µM | > 100 µM | 37.2 µM | > 100 µM | > 100 µM | > 100 µM | 67.1 µM | > 100 µM | > 100 µM | > 100 µM | 67 | > 100 µM | > 100 µM | > 100 µM | > 100 µM | > 100 µM | > 100 µM | > 100 µM |
| N#CCCN(C1=NN(C(=O)CC(=O)Nc2ccc(Cl)cc2)C(c2ccccc2)C1)c1ccc(Cl)cc1 (stereo unspecified) |  | > 100 µM |  | > 100 µM |  | > 100 µM |  | > 100 µM |  | > 100 µM |  | > 100 µM |  | > 100 µM |  | > 100 µM |  | > 100 µM |  | > 100 µM |
| C=C1C[C@@H](O)[C@@H](Br)C(C)(C)[C@]12CCC(C)(Br)C(Cl)C2 (stereo partly specified) | 17.9 µM | > 50 µM and 33.7 µM | 23.7 µM | > 50 µM and 52.4 µM | 16.9 µM | > 50 µM and 31.2 µM | 15.2 µM | > 50 µM and 33 µM | 16.7 µM | > 50 µM and 30.3 µM | 12.6 µM | 50 µM and 33.3 µM | 18 | > 50 µM and 36.1 µM | 17.6 µM | > 50 µM and 33.2 µM | 18.5 µM | > 50 µM and 34.1 µM | 18.6 µM | > 50 µM and 34.2 µM |
| COc1cc(N2CCN(C(C)C)CC2)ccc1Nc1nc(Nc2ccc(F)cc2C(=O)NCC(O)CO)c2cc[nH]c2n1 (stereo unspecified) | > 23.3 µM | > 25 µM | > 25 µM | > 25 µM | 5.13 µM | > 25 µM | 2.05 µM | > 25 µM | 11.4 µM | > 25 µM | 15 µM | > 25 µM | 11.1 | > 25 µM | 7.41 µM | > 25 µM | > 25 µM | > 25 µM | 2.87 µM | > 25 µM |
| O=C(CN1CCN(CCN2C(=O)c3cccc4cccc(c34)C2=O)CC1)Nc1ccc2ncsc2c1 | 5.82 µM | 20.8 µM | 5.05 µM | 20.1 µM | 6.43 µM | 20.5 µM | 3.19 µM | 19.3 µM | 3.7 µM | 16 µM | 9.39 µM | 38.1 µM | 7.91 | > 100 µM | 4.5 µM | 21.7 µM | 4.09 µM | 16.5 µM | 5.65 µM | 23.7 µM |
| CC(=O)NNc1nc(C)c(C(/C=C/c2ccc(Cl)cc2)=N\N=C(N)N)s1 |  | > 100 µM |  | > 100 µM |  | > 100 µM |  | > 100 µM |  | > 100 µM |  | > 100 µM |  | > 100 µM |  | > 100 µM |  | > 100 µM |  | > 100 µM |
| O=C1Nc2ccc(O)cc2/C1=C\c1ccncc1 | 18.5 µM | 39 µM | 11 µM | 39 µM | 6.11 µM | 23.1 µM | 25.5 µM | 58.3 µM | 15.5 µM | 38.1 µM | 34.1 µM | > 100 µM | 4.27 | 41.6 µM | 21.2 µM | 59 µM | 11.7 µM | 27.9 µM | 13.2 µM | 33.3 µM |
| CCSc1nc(NC(C)c2ccccc2)c2cnn(CO)c2n1 (stereo unspecified) | 59.9 µM | > 100 µM | 70.2 µM | > 100 µM | 94.4 µM | > 100 µM | 67.9 µM | > 100 µM | 3.18 µM | 25.9 µM | > 100 µM | > 100 µM | > 100 | > 100 µM | > 100 µM | > 100 µM | 76 µM | > 100 µM | 6.91 µM | > 100 µM |
| CC(C)n1nc(C#Cc2cccc(O)c2)c2c(N)ncnc21 | 4.7 µM and 3.37 µM | 15.3 µM and 11.7 µM | 1.35 µM and 0.906 µM | 21.6 µM and 10.1 µM | 0.815 µM and 0.282 µM | 3.57 µM and 1.65 µM | 2.08 µM and 1.72 µM | 50 µM and 31.9 µM | 1.72 µM and 0.887 µM | 6.39 µM and 2.67 µM | 1.13 µM and 0.516 µM | 5.78 µM and 6.19 µM | 0.856 | 2.24 µM | 3.02 µM and 2.16 µM | 21.4 µM and 14.4 µM | 1.05 µM and 0.461 µM | 4.18 µM and 3.96 µM | 1.22 µM and 1.63 µM | 6.17 µM and 4.95 µM |
| Cc1ccc2nc(Sc3c([N+](=O)[O-])ncn3C)[nH]c2c1 |  | > 100 µM |  | 32.4 µM |  | 36.4 µM |  | > 100 µM |  | 33.1 µM |  | 78.7 µM |  | 65.6 µM |  | > 100 µM |  | > 100 µM |  | 38.5 µM |
| O=C(NCCCl)NCCN1c2nc3ccccc3cc2Sc2cc3ccccc3nc21 | 1.55 µM | 4.89 µM | 2.74 µM | > 40 µM | 3.14 µM | 17.7 µM | 1.16 µM | 2.95 µM | 0.168 µM | 1.25 µM | 0.245 µM | 1.64 µM | 0.71 | 25.3 µM | 5.58 µM | > 46.8 µM | 3.02 µM | > 45.9 µM | 1.37 µM | 6.55 µM |
| CCOC(=O)Nc1ccc2nc(N3CCCCCC3)sc2c1 | 6.86 µM | > 100 µM | 0.84 µM | > 46.2 µM | 1.59 µM | > 27.4 µM | 0.567 µM | > 100 µM | 1.04 µM | 15.9 µM | 3.33 µM | 26.3 µM | 4.36 | > 100 µM | 2.84 µM | > 100 µM | 9.6 µM | > 74.1 µM | 15.2 µM | 97.2 µM |
| COC(=O)[C@H](Cc1ccccc1)NNC(=O)c1csc([C@@H](C[C@H](C(C)C)N(C)C(=O)[C@@H](NC(=O)[C@H]2CCCCN2C)C2CC2)OC(C)=O)n1 |  | 25 µM and > 100 µM |  | 25 µM and > 100 µM | 0.00648 µM and 0.0315 µM | 0.0564 µM and 0.461 µM |  | 25 µM and > 100 µM |  | 0.51 µM and 2.26 µM |  | 25 µM and > 100 µM |  | 25 µM and > 100 µM |  | > 100 µM |  | 25 µM and > 100 µM |  | > 100 µM |
| CCC(CC)c1cc(N[C@H]2CC[C@H](N)C2)n2nccc2n1 | 2.22 µM | > 100 µM | 2.23 µM | > 100 µM | 1 µM | 5.07 µM | 0.626 µM | > 100 µM | 2.21 µM | 11 µM | 2.61 µM | > 100 µM | 2.38 | > 100 µM | 1.06 µM | > 100 µM | 1.44 µM | > 100 µM | 1.84 µM | 5.87 µM |
| COc1ccc(C2CC(c3ccccc3)=NN2C(=O)c2cc(OC)c(OC)c(OC)c2)cc1O (stereo unspecified) | 0.301 µM | 3.86 µM | 0.352 µM | 40.2 µM | 0.288 µM | 1.31 µM | 0.415 µM | > 55.7 µM | 0.338 µM | 2.17 µM | 0.259 µM | 5.47 µM | 0.498 | > 100 µM | 0.645 µM | > 100 µM | 0.816 µM | 58.1 µM | 22.1 µM | > 54.3 µM |
| COc1cccc(N2C(=O)/C(=C/c3ccc(N(CCC#N)CCC#N)cc3)N=C2c2cc([N+](=O)[O-])ccc2Cl)c1 |  | > 100 µM |  | > 100 µM |  | > 100 µM |  | > 100 µM |  | > 100 µM |  | > 100 µM |  | > 100 µM |  | > 100 µM |  | > 100 µM |  | > 100 µM |
| CCNC(=O)Oc1ccc(/C(=C(\C)c2ccc(Cl)cc2)c2ccc(OCCN(CC)CC)cc2)cc1 | 1.76 µM | 3.42 µM | 2.21 µM | 7.04 µM | 1.78 µM | 3.44 µM | 2.02 µM | 4.23 µM | 1.75 µM | 3.15 µM | 2.4 µM | 6 µM | 3.66 | 15.3 µM | 3.13 µM | 8.45 µM | 3.74 µM | 14.6 µM | 2.11 µM | 4.36 µM |
